From paper PMC11219871, “Epigenetic-based differentiation therapy for Acute Myeloid Leukemia” (Nature Communications, 2024)
Several values for one entry are separate records, joined by “and”; a condition that tells them apart may be missing. Equal values may be shown once.

Key:
MOLM-13 = experiment: Differentiation-apoptosis assay, CD11b / annexin-V / Sytox Green / myeloid markers flow cytometry; type: cell-based, human; parameters: Cell viability (%): concentration or dose not given beside the values; CD11b levels: unit not given here
Description: (§1) Next, the cells were washed twice with phosphate-buffered saline (PBS) and resuspended in 1X Binding Buffer at a concentration of 1 × 10^6 cells/mL. An 8-µL aliquot of APC-CD11b (BD Pharmingen, Franklin Lakes, NJ, USA) and 1 µL of FITC annexin-V (AV) (BD Pharmingen, Franklin Lakes, NJ, USA) antibodies were added and incubated for 15 min at room temperature in the dark. Finally, after the addition of 400 µL of 1X Binding Buffer to each tube, samples were collected on a BD FACSCanto flow cytometer (Becton Dickinson, San Jose, CA, USA) and analyzed using FlowJo software.
(§2) For the rest of experiments, the mix of antibodies (2 µL of BV786-CD13, Cat No, 744748 BD; 1 µL of diluted 1:10 antibody of PB-HLADR, Cat No 307633, Biolegend; 5 µL of APCH7-CD14, Cat No 641394, BD) was added to 10 µL of Brilliant Stain Buffer Plus (Becton Dickinson, San Jose, CA, USA). Then, 1 million cells (volume of 250 µL) were added and incubated for 30 min at room temperature in darkness. After 10 min incubation at room temperature with 2 mL of FACSLysing 1X, cells were centrifuged at 540 g for 5 min and washed twice with FACSBuffer. Finally, after centrifugation at 540 g for 5 min cells were resuspended in FACSBuffer.

MV4-11 = experiment: as above; type: cell-based, human; parameters: Cell viability (%): concentration or dose not given beside the values; CD11b levels: unit not given here
Description: as §1, §2

BRD3 (BD2) = target: T1, BRD3 (BD2) (Homo sapiens, UniProt Q15059); experiment: Epigenetic panel (BPS Bioscience); type: binding
T1 construct: purchased BPS Bioscience; Eurofins (HDAC4, 5, 7-11)
T1 sequence (Q15059 306-419 limits assumed): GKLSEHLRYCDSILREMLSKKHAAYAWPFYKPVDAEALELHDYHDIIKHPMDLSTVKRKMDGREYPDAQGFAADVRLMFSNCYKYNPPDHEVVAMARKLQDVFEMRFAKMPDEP
Description: (§3) The selectivity of CM-444 and CM-1758 against other epigenetic targets, including histone demethylase (JMJD2A, JMJD2B, JMJD2C, JMJD2D, JMJD2E, JMJD3, JMJD1A, LSD1, Jarid1A, Jarid1B, Jarid1C, FBXL10, FBXL11, JHDM1D, JMJD1B, PHF8, LSD2 and UTX); histone acetyltransferases (GCN5, P300); histone methyltransferases (G9a, GLP, MLL1, SET7/9, SUV39H1, SUV39H2, PRMT1, PRMT3, PRMT4, PRMT5, PRMT6, PRMT8, PRMT9, NSD1, NSD2, EZH1, EZH2, SETDB1, SETD2, SET8, SUV4-20H1, SMYD2, SMYD3, DOT1L, EZH2 (A677G), EZH2 (A677G), EZH2 (A738T), EZH2 (Y641S), EZH2 (P132S), EZH2 (Y641C), EZH2 (Y641F), EZH2 (Y641H), EZH2 (Y641N)); bromodomains (ATAD2B, ATAD2A, BRD1, BRD9, BPTF/FALZ, CeCR2, BRPF3, BRD3 (BD1 + BD2), BAZ2B, WDR9, TAF1 (BD2), TAF1L (BD2), TAF1L (BD1 + BD2), BRD2 (BD1), BRD2 (BD2), BRD2 (BD1 + BD2), BRD3 (BD1), BRD3 (BD2), BRD4 (BD1), BRD4 (BD2), BRD4 (BD1 + BD2), BRDT (BD1), BRDT (BD1 + BD2), CREBBP, SMARCA2A, SMARCA4/BRG1); DNA methyltranferases (DNMT1, DNMT3A/3L and DNMT3B/3L), and sirtuin histone deacetylases (SIRT1, SIRT2, SIRT3, SIRT5 and SIRT6), were determined by BPS Bioscience (http://www.bpsbioscience.com/index.ph). Binding experiments were performed in duplicate at a concentration of 10 μM.

ATAD2B = target: T2, ATAD2B (Homo sapiens, UniProt Q9ULI0); experiment: Epigenetic panel (BPS Bioscience); type: binding
T2 construct: purchased BPS Bioscience; Eurofins (HDAC4, 5, 7-11)
Description: as §3

ATAD2A = target: T3, ATAD2A (Homo sapiens, UniProt Q6PL18); experiment: Epigenetic panel (BPS Bioscience); type: binding
T3 construct: purchased BPS Bioscience; Eurofins (HDAC4, 5, 7-11)
T3 sequence (Q6PL18 whole entry): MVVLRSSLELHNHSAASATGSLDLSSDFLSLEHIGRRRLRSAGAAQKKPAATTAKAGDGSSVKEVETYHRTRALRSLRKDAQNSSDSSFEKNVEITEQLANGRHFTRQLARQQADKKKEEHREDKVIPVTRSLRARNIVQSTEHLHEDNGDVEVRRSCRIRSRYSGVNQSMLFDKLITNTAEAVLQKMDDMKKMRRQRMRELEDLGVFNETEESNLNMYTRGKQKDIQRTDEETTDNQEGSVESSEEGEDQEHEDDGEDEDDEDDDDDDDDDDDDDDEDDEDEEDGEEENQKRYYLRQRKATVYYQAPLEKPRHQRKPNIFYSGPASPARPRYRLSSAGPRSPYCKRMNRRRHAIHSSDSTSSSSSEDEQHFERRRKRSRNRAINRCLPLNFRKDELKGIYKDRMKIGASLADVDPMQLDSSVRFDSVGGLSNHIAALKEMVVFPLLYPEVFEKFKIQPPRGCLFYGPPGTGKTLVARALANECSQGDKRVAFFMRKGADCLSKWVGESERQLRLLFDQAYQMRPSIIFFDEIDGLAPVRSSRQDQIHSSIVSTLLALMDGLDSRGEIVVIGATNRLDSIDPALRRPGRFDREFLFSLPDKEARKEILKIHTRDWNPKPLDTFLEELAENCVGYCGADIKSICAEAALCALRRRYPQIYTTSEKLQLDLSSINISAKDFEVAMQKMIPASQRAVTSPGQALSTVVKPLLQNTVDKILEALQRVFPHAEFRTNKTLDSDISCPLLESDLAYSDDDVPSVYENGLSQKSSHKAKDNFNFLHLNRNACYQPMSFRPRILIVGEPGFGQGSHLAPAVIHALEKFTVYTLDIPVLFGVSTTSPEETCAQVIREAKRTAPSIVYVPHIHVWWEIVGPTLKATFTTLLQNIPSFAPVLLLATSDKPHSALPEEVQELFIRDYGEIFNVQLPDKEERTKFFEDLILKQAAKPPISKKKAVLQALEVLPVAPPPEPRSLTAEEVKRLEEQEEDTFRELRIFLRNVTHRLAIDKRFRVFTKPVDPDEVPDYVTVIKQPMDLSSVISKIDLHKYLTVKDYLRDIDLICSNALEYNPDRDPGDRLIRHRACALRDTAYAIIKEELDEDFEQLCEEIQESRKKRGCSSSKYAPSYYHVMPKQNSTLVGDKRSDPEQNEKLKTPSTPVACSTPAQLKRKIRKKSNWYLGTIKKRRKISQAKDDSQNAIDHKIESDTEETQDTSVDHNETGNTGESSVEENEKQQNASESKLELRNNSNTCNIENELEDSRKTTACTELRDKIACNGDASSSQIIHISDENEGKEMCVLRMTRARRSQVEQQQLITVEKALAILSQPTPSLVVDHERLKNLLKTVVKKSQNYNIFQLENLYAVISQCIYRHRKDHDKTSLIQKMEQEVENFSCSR
Description: as §3

CREBBP = target: T4, CREBBP (Homo sapiens, UniProt Q92793); experiment: Epigenetic panel (BPS Bioscience); type: binding
T4 construct: purchased BPS Bioscience; Eurofins (HDAC4, 5, 7-11)
T4 sequence (Q92793 whole entry): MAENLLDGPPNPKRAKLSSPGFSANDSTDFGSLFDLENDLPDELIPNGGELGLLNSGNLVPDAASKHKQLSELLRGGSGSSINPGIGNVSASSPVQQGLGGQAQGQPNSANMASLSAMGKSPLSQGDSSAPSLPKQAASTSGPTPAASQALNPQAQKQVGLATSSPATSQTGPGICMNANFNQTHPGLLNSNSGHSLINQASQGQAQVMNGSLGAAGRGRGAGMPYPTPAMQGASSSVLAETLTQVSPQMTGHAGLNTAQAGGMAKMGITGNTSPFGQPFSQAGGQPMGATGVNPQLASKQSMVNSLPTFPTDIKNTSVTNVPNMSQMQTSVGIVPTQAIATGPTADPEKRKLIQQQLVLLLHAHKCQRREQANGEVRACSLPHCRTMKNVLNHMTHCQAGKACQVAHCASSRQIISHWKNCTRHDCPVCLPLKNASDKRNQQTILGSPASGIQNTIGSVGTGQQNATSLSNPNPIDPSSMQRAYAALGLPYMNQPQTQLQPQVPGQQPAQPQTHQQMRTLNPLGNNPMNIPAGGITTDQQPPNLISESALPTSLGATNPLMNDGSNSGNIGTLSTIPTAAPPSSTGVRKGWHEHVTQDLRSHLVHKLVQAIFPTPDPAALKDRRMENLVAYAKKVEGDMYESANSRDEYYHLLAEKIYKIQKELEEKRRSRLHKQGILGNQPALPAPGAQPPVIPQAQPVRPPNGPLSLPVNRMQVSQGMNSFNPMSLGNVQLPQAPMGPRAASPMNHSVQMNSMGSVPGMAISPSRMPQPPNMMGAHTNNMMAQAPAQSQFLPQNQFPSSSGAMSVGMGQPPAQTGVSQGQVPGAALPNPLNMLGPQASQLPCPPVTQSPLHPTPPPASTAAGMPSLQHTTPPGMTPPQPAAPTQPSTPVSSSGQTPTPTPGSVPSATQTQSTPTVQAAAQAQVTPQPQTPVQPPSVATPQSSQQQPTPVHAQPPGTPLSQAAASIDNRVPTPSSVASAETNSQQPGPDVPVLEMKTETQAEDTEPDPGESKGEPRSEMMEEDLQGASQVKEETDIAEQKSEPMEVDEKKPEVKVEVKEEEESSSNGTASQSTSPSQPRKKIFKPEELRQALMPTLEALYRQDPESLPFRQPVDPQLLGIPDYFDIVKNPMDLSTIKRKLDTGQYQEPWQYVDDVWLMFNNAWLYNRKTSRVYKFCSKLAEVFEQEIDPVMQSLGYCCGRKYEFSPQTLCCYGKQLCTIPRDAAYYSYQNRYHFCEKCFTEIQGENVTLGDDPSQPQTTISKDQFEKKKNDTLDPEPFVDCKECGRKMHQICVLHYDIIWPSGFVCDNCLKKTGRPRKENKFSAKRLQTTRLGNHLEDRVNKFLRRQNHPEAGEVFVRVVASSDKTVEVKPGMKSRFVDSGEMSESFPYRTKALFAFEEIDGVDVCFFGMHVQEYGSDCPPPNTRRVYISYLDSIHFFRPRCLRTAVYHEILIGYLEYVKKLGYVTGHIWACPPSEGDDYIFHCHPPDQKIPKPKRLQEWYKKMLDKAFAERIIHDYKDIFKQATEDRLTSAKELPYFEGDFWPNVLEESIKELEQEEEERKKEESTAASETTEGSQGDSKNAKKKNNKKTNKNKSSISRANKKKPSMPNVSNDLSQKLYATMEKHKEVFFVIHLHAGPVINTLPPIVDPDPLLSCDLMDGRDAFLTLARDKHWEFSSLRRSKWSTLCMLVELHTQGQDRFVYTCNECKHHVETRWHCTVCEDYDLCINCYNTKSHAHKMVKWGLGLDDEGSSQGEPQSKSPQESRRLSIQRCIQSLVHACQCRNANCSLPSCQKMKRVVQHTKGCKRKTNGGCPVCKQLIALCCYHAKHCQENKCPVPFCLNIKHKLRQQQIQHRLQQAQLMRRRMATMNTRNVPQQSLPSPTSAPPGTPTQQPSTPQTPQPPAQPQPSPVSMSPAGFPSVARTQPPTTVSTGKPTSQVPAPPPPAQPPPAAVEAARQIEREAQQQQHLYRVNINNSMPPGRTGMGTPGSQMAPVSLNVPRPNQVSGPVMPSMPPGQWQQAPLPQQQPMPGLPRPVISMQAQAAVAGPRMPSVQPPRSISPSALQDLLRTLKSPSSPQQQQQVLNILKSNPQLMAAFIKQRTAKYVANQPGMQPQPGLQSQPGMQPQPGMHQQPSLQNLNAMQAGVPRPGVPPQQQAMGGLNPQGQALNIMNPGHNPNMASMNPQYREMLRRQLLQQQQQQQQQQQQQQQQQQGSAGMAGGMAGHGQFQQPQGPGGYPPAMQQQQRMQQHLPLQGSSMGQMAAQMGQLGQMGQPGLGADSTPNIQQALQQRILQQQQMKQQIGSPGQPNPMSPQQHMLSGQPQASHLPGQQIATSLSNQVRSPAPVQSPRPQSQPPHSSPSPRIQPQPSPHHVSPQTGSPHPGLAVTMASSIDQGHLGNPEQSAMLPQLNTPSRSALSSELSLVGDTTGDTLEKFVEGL
Description: as §3

BRD3 (BD1+BD2) = target: T5, BRD3 (BD1+BD2) (Homo sapiens, UniProt Q15059); experiment: Epigenetic panel (BPS Bioscience); type: binding
T5 construct: purchased BPS Bioscience; Eurofins (HDAC4, 5, 7-11)
T5 sequence (Q15059 29-419 limits assumed): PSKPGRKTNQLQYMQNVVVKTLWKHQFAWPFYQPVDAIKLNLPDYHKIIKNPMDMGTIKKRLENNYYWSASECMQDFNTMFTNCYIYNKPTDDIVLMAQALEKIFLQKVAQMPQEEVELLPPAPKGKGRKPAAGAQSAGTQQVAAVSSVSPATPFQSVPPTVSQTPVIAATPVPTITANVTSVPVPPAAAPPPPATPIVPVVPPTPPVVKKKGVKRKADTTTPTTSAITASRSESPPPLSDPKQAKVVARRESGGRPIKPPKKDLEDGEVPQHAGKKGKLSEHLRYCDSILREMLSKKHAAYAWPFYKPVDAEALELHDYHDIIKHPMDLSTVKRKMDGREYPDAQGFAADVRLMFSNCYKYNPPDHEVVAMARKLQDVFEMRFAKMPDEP
Description: as §3

TAF1L (BD2) = target: T6, TAF1L (BD2) (Homo sapiens, UniProt Q8IZX4); experiment: Epigenetic panel (BPS Bioscience); type: binding
T6 construct: purchased BPS Bioscience; Eurofins (HDAC4, 5, 7-11)
T6 sequence (Q8IZX4 1523-1654 limits assumed): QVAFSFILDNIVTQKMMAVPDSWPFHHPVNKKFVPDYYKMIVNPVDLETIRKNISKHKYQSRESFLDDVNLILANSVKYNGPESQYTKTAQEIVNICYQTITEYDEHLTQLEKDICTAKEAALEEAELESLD
Description: as §3

BRD4 (BD1) = target: T7, BRD4 (BD1) (Homo sapiens, UniProt O60885); experiment: Epigenetic panel (BPS Bioscience); type: binding
T7 construct: purchased BPS Bioscience; Eurofins (HDAC4, 5, 7-11)
Description: as §3

[1] = test system: H3Ac and H3K27me3 levels in HL-60, ML-2, MV4-11 and MOLM-13 cell lines; experiment: Western blot of histone marks; type: cell-based, human; settings: HL-60, 270 nM CM-444 or 300 nM CM-1758, 48 h
Description: Histone extraction was performed with a Histone extraction Kit (Abcam, Cambridge, UK) following the manufacturer’s instructions. The histone concentration in the extract was measured using the dye-binding assay of Bradford. A 10 µg amount of histone was separated on 15% sodium dodecyl sulfate-polyacrylamide gel electrophoresis and transferred to a nitrocellulose membrane. The membrane, after being blocked with Tropix I-block blocking reagent (Cat No AI300, Tropix) in PBS with 0.1% Tween 20 and 0.02 NaN3 was incubated with the primary antibody against Acetyl H3 (rabbit polyclonal antibody, Cat No 06-599, Millipore) diluted 1:50,000 o/n at 4 °C or against H3K27 me3 (mouse monoclonal antibody to histone H3 trimethyl K27, Cat No ab6002, Abcam) diluted 1:2000 in bovine serum albumin o/n at 4 °C and then with alkaline phosphatase-conjugated secondary antibodies. […] Total H3 was used as a loading control (diluted 1:50,000 o/n at 4 °C or for 1 h at room temperature) (Anti-Histone H3, CT, pan, rabbit polyclonal, Cat No 07-690, Millipore). Images have been cropped for presentation.

[2] = MOLM-13 cell line, replicates 1-3 (Figure 2A)
[3] = MV4-11 cell line, replicates 1-3 (Figure 2A)
[4] = MOLM-13, 48 h treatment, replicates 1-3 (Suppl. Fig. 5A)
[5] = MV4-11, 48 h treatment, replicates 1-3 (Suppl. Fig. 5A)
[6] = MOLM-13, daily treatment, time 0 days
[7] = MOLM-13, daily treatment, time 2 days
[8] = MOLM-13, daily treatment, time 4 days
[9] = MOLM-13, daily treatment, time 6 days
[10] = MOLM-13, daily treatment, time 8 days
[11] = MV4-11, daily treatment, time 0 days
[12] = MV4-11, daily treatment, time 2 days
[13] = MV4-11, daily treatment, time 4 days
[14] = MV4-11, daily treatment, time 6 days

Structure (SMILES): CC1=C(/C=C/C(C)=C/C=C/C(C)=C/C(=O)O)C(C)(C)CCC1 [ATRA, all-trans retinoic acid, reference compound]
- CD11b (%) (MOLM-13; [2]): 26.9% and 23.1% and 27.34%
- CD11b (%) (MV4-11; [3]): 9.6% and 4.7% and 11.86%

Structure (SMILES): Cc1[nH]c2ccccc2c1CCNCc1ccc(/C=C/C(=O)NO)cc1 [Panobinostat, reference compound]
- CD11b (%) (MOLM-13; [4]): 39.6% and 32.7% and 32.0%
- Cell viability (%) (MOLM-13; [4]): 45.5% and 59.6% and 57.8%
- CD11b (%) (MV4-11; [5]): 12.9% and 19.4% and 18.7%
- Cell viability (%) (MV4-11; [5]): 38.3% and 43.2% and 44.2%

Structure (SMILES): COc1cc2nc(-c3ccc(C)o3)cc(NCC3CCN(c4ncc(C(=O)NO)cn4)CC3)c2cc1OC [CM-444, 2-[4-[[[6,7-dimethoxy-2-(5-methyl-2-furyl)-4-quinolyl]amino]methyl]-1-piperidyl]pyrimidine-5-carbohydroxamic acid]
- inhibition at 10 µM (BRD3 (BD2)): 0%
- inhibition at 10 µM (ATAD2B): 0%
- inhibition at 10 µM (ATAD2A): 0%
- inhibition at 10 µM (CREBBP): 0%
- inhibition at 10 µM (BRD3 (BD1+BD2)): 43%
- inhibition at 10 µM (TAF1L (BD2)): 0%
- inhibition at 10 µM (BRD4 (BD1)): 6%
- H3Ac level (western blot) [1]: significant increase in H3Ac
- H3K27me3 level (western blot) [1]: no changes in H3K27me3
- CD11b (%) (MOLM-13; MOLM-13, 48 h): 92.8%
- CD13 (%) (MOLM-13; MOLM-13, 48 h): 49.3%
- CD14 (%) (MOLM-13; MOLM-13, 48 h): 66.5%
- HLA-DR (%) (MOLM-13; MOLM-13, 48 h): 35.1%
- CD11b (%) (MOLM-13; [4]): 94.2% and 88.9% and 85.7%
- Cell viability (%) (MOLM-13; [4]): 70.2% and 63.7% and 70.7%
- differentiation level (CD11b) (MOLM-13; MOLM-13, after 6–8 days of treatment): ~90%
- CD11b levels (MOLM-13; MOLM-13, daily treatment for 48 h, replicates 1-3 (Suppl. Fig. 9A)): 43.6 and 50.7 and 40.2
- Annexin-V (%) (MOLM-13; [6]): 4.46% and 6.55% and 4.89%
- CD11b (%) (MOLM-13; [6]): 6.62% and 4.5% and 6.9%
- Annexin-V (%) (MOLM-13; [7]): 24.6% and 15.6% and 17.4%
- CD11b (%) (MOLM-13; [7]): 63% and 58.9% and 57.2%
- Annexin-V (%) (MOLM-13; [8]): 66.7% and 40.3% and 35.6%
- CD11b (%) (MOLM-13; [8]): 60% and 65.3% and 63.1%
- Annexin-V (%) (MOLM-13; [9]): 72.2% and 50.7% and 45.3%
- CD11b (%) (MOLM-13; [9]): 66.7% and 70.8% and 65.2%
- Annexin-V (%) (MOLM-13; [10]): 68.1% and 55.1% and 49.2%
- CD11b (%) (MOLM-13; [10]): 68.9% and 75.7% and 73.6%
- CD11b (%) (MOLM-13; [2]): 73.8% and 63.3% and 68.4%
- CD11b (%) (MV4-11; MV4-11, 48 h): 58.9%
- CD13 (%) (MV4-11; MV4-11, 48 h): 98.0%
- CD14 (%) (MV4-11; MV4-11, 48 h): 57.6%
- HLA-DR (%) (MV4-11; MV4-11, 48 h): 42.1%
- CD11b (%) (MV4-11; [5]): 53.8% and 54.1% and 56.8%
- Cell viability (%) (MV4-11; [5]): 72.5% and 67.1% and 68%
- differentiation level (CD11b) (MV4-11; MV4-11, after 6–8 days of treatment): ~90%
- CD11b levels (MV4-11; MV4-11, daily treatment for 48 h, replicates 1-3 (Suppl. Fig. 9A)): 39.5 and 43.7 and 45.9
- Annexin-V (%) (MV4-11; [11]): 5.32% and 4.14% and 5.2%
- CD11b (%) (MV4-11; [11]): 11.1% and 6.62% and 5.25%
- Annexin-V (%) (MV4-11; [12]): 28.1% and 26.8% and 25.7%
- CD11b (%) (MV4-11; [12]): 30.2% and 35.8% and 36.8%
- Annexin-V (%) (MV4-11; [13]): 38.5% and 41.2% and 41.8%
- CD11b (%) (MV4-11; [13]): 53.4% and 55% and 51.8%
- Annexin-V (%) (MV4-11; [14]): 79.6% and 81.2% and 80.7%
- CD11b (%) (MV4-11; [14]): 74.9% and 73.2% and 74.5%
- CD11b (%) (MV4-11; [3]): 41.7% and 49.8% and 50.4%
